Measurements published in patent publication US9340549B2, “Oxazolidinone compounds and derivatives thereof” (priority 2012, dated 2016).
Read-outs that look alike come from different tables or passages of the source.

Columns and labels:
[1] = system: total β-catenin in SW480 colorectal cells; experiment: cells; type: cell-based; conditions: Homo sapiens
In short: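 SW480 cells in growth medium (MEM alpha, 10% heat-inactivated FBS, 10 mM HEPES) treated with a 10-point, 3-fold dilution series of TNKS inhibitor for 40–48 h at 37 °C. Lysates run on an MSD sandwich immunoassay for total β-catenin, read by electrochemiluminescence.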

[2] = system: Axin2 in SW480 cells; experiment: cells; type: cell-based; conditions: Homo sapiens, read-out: Axin2 384 IF EC50 IP
In short: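 SW480 cells treated 24 h at 37° C (0.5% DMSO final), fixed/permeabilized, immunostained for Axin2. ArrayScan imaging quantified ring-spot intensity; Axin2 accumulation expressed as percent of control, EC50 from concentration-response.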

[3] = system: 8×TCF promoter-driven Firefly luciferase (Wnt reporter) in DLD-1 colorectal cells; experiment: DLD-1-STF assay, constitutively activated Wnt pathway in mutant APC cancer cell context; type: cell-based; conditions: Homo sapiens
Method: DLD-1-STF Assay. Constitutively Activated Wnt Pathway Assay in Mutant APC Cancer Cell Context
DLD-1 colorectal cells engineered with an 8×TCF promoter-driven Firefly (FF) luciferase gene (Wnt reporter) along with an EF1a promoter-driven Renilla (RN) luciferase gene (control reporter) were used to measure the potency of tankyrase compounds in the context of the constitutively activated Wnt pathway due to mutated APC in colorectal cancer cells. The engineered DLD-1 cells were plated (45 μL) at a density of 10,000 cells/well in black, clear-bottom, 96-well View plates (PerkinElmer) in normal growth medium (RPMI with 10% FBS with no antibiotics). Tankyrase inhibitors (5 μL) were transferred to cells from a three-fold serially diluted compound plate. A 10-point dilution series was tested starting at a concentration (10 μM final concentration in assay). Column 6 contained only DMSO and served as the “HI” control. […] The plates were incubated at 37° C. for 40 to 48 hours. The Dual-Glo Reagents (Promega) were added as directed by manufacturer to assay the FF and RN luciferase activity. Luciferase activity was measures using the EnVision multilabel plate reader (PerkinElmer).

[4] = molecular target: 6×HIS-tankyrase 1 (1091-1325) (Homo sapiens (Human), UniProt O95271); experiment: biochemical; type: biochemical; conditions: […] enzyme, 400 nM NAD, 60 minutes at room temperature; read-out: TNKS1 IP IC50
Chain of 6×HIS-tankyrase 1 (1091-1325) (O95271 1091-1325): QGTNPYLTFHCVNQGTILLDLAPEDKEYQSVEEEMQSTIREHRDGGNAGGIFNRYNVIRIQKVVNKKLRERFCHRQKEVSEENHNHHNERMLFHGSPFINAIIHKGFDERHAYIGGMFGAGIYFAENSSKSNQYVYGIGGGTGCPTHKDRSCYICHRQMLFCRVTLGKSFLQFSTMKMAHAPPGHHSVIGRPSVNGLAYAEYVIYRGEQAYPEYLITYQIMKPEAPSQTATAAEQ

[5] = molecular target: 6×HIS-tankyrase 2 (946-1162) (Homo sapiens (Human), UniProt Q9H2K2); experiment: Tankyrase 2 biochemical assay (AlphaLisa, anti-PAR detection); conditions: 4 nM enzyme, 250 nM NAD; read-out: TNKS2 IP IC50
Chain of 6×HIS-tankyrase 2 (946-1162) (Q9H2K2 946-1162): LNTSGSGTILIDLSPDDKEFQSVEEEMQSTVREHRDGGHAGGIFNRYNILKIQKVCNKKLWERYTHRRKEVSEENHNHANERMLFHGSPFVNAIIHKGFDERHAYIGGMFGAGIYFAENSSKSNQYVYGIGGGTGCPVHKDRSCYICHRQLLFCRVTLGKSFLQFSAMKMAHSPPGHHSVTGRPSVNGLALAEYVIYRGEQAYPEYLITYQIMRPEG

[6] = system: 8×TCF promoter-driven Firefly luciferase (Wnt reporter) in HEK-293 cells; experiment: 2H9-STF assay, Wnt ligand activated HEK-293 assay in WT APC cellular context; type: cell-based; conditions: Homo sapiens
Method: HEK-293 cells engineered with an 8×TCF promoter-driven Firefly (FF) luciferase gene (Wnt reporter) along with an SV40 promoter-driven Renilla (RN) luciferase gene (control reporter) were used to measure the potency of tankyrase compounds in the context of Wnt ligand activation in a wild-type (non-APC mutated) cellular background. The engineered HEK-293 cells were plated (25 μL) at a density of 40,000 cells/well in black, clear-bottom, 96-well View plates (PerkinElmer) in normal growth medium (DMEM with 10% FBS with no antibiotics). Tankyrase inhibitors (5 μL) were transferred to cells from a three-fold serially diluted compound plate. A 10-point dilution series was tested starting at a concentration (10 μM final concentration in assay). Column 6 contained only DMSO and served as the “HI” control. Cells and compounds were incubated together for 1 hour at 37° C. after which the Wnt3a ligand (pathway inducer) was added to all wells except column 12 which served as the “LO” control. Twenty microliters of diluted recombinant mouse Wnt3a (R & D Systems) was added to the cells for a final concentration of 200 ng/mL (5 nM which is the Wnt3a˜EC80) and the plates were incubated at 37° C. for 18 to 24 hours. The Dual-Glo Reagents (Promega) were added as directed by manufacturer to assay the FF and RN luciferase activity. Luciferase activity was measures using the EnVision multilabel plate reader (PerkinElmer).

[7] = system: SW480 cells; experiment: Colony formation assay; type: cell-based; conditions: Homo sapiens, read-out: SW480 Colony Inhibition IC50
Method: Colorectal cell lines grown under normal logarithmic growth conditions in 10% FBS were trypsinized, counted in a Vi-CELL Cell Viability Analyzer and diluted to 400 cells/mL in RPMI media containing 0.5% FBS. Cells were plated in 12 well plates using 0.5 mL of diluted cells for a total of 200 cells/well. Tankyrase inhibitors were diluted in RPMI (0.5% FBS) at 2× final concentration. Ten concentrations of compound were prepared starting at 20 μM and serially diluted by 2 fold and 0.5 mL of diluted compound was added to each well. The final concentration range tested was thus 10 μM down to 20 nM. Two additional wells per plate were treated with the vehicle control (0.1% DMSO). The cells were grown for 12 days with the media and the compounds changed at day 6. Colonies were visualized by fixing and staining with Crystal Violet dye diluted in 1× fixation solution (2% formaldehyde, 0.2%, glutaraldehyde in 1×PBS) for 30 minutes at room temperature. The plates were washed extensively and air dried. Images of plates were captured and the colony counts were performed using the Bioreader® (Biosys) reader.

[8] = SW480 cells, 40 to 48 hours, top concentration 10 μM, read-out: SW480-Total β-Catenin IC50 IP
[9] = SW480, 24 h, SW480 cells, 24 hours
[10] = DLD-1 reporter cells, 40 to 48 hours, read-out: DLD1-STF-FF/RL * 100 IC50
[11] = HEK293, HEK-293 reporter cells, 200 ng/mL mouse Wnt3a, 18 to 24 hours, read-out: 2H9-Wnt3a-STF-FF/RL * 100 IC50
[12] = HEK293, read-out: 2H9-Wnt3a-STF-FF/RL * 100 IC50

Q: Which IC50 [1, 8] does the source give for `CC1(C)OC(=O)N([C@H]2CC[C@H](n3c(=O)[nH]c4cnccc43)CC2)[C@H]1c1ccccc1` [Example 23, (S)-5,5-dimethyl-3-((1r,4S)-4-(2-oxo-2,3-dihydro-1H-imidazo[4,5-c]pyridin-1-yl)cyclohexyl)-4-phenyloxazolidin-2-one] here?
A: The IC50 was 143 nM.

Q: And the EC50 [2, 9]?
A: Its EC50 is 231 nM.

Q: And the IC50 [3, 10]?
A: The IC50 was 44 nM.

Q: What does the source list for `CC1(C)OC(=O)N(c2ccc(-c3cnc(N)c(-c4ccc5nncn5n4)c3)cc2)[C@H]1c1ccccc1` [Example 12, (S)-3-(4-(5-([1,2,4]triazolo[4,3-b]pyridazin-6-yl)-6-aminopyridin-3-yl)phenyl)-5,5-dimethyl-4-phenyloxazolidin-2-one]?
A: IC50 [4]: 52.1 nM; IC50 [5]: 49.3 nM; IC50 [1, 8]: 212 nM

Q: How did the IC50 [1, 8] turn out when `CC1(C)OC(=O)N([C@H]2CC[C@H](n3c(=O)[nH]c4cc(C#N)ccc43)CC2)[C@H]1c1ccccc1` [Example 47, 1-((1S,4r)-4-((S)-5,5-dimethyl-2-oxo-4-phenyloxazolidin-3-yl)cyclohexyl)-2-oxo-2,3-dihydro-1H-benzo[d]imidazole-5-carbonitrile] was run?
A: Its IC50 is 53.7 nM.

Q: And the EC50 ([2]; SW480 cells, 24 hours)?
A: Its EC50 is 72.9 nM.

Q: What about the IC50 ([3]; DLD-1, read-out: DLD1-STF-FF/RL * 100 IC50) of the same molecule?
A: The IC50 was 12 nM.

Q: Which results are given for `CC1(C)OC(=O)N([C@H]2CC[C@H](n3c(=O)[nH]c4ccccc43)CC2)C1c1ccccc1` (stereo partly shown) [Example 35, (R+S) 5,5-dimethyl-3-((1r,4r)-4-(2-oxo-2,3-dihydro-1H-benzo[d]imidazol-1-yl)cyclohexyl)-4-phenyloxazolidin-2-one]?
A: IC50 [4]: 11.8 nM; IC50 [1, 8]: 1330 nM; EC50 [2, 9]: 6690 nM; IC50 [6, 11]: 543 nM

Q: Which results are given for `CC1(C)OC(=O)N(c2ccc(-c3cc(-c4ncccn4)c[nH]c3=O)cc2)[C@H]1c1ccccc1` [Example 4, (S)-5,5-Dimethyl-3-(4-(2-oxo-5-(pyrimidin-2-yl)-1,2-dihydropyridin-3-yl)phenyl)-4-phenyloxazolidin-2-one]?
A: IC50 [4]: 76.9 nM; IC50 [5]: 65.9 nM; IC50 ([1]; SW480, read-out: SW480-Total β-Catenin IC50 IP): 750 nM; EC50 ([2]; SW480, 24 h): 2840 nM; IC50 [6, 12]: 290 nM

Q: How did the IC50 [4] turn out when `CC1(C)OC(=O)N(c2ccc(-c3cnc(N)c(-c4ncccn4)c3)cc2)[C@H]1c1ccccc1` [Example 65, (S)-3-(4-(6-amino-5-(pyrimidin-2-yl)pyridin-3-yl)phenyl)-5,5-dimethyl-4-phenyloxazolidin-2-one] was run?
A: Its IC50 is 49 nM.

Q: And the IC50 [5]?
A: Its IC50 is 25.9 nM.

Q: What about the IC50 [1, 8] of the same molecule?
A: Its IC50 is 233 nM.

Q: And the EC50 [2, 9]?
A: Its EC50 is 1440 nM.

Q: And the IC50 [6, 11]?
A: The IC50 was 95.9 nM.

Q: What about the IC50 [3, 10] of the same molecule?
A: The IC50 was 107 nM.

Q: And the IC50 ([7]; 288 h, SW480, 0.5% FBS, 12 days)?
A: Its IC50 is 1300 nM.

Q: `CC1(C)OC(=O)N(c2ccc(-c3cnc(N)c(-c4ncc(F)cn4)c3)cc2)[C@H]1c1ccccc1` [Example 64, (S)-3-(4-(6-amino-5-(5-fluoropyrimidin-2-yl)pyridin-3-yl)phenyl)-5,5-dimethyl-4-phenyloxazolidin-2-one] was tested. Which IC50 [4] did it give?
A: Its IC50 is 85 nM.

Q: What about the IC50 [5] of the same molecule?
A: Its IC50 is 48.3 nM.

Q: And the IC50 [1, 8]?
A: The IC50 was 293 nM.

Q: And the EC50 [2, 9]?
A: The EC50 was 3230 nM.

Q: Which results are given for `CC1(C)OC(=O)N([C@H]2CC[C@H](NC(=O)c3cccc4cccnc34)CC2)[C@H]1c1ccccc1` [Example 26, N-((1S,4r)-4-((S)-5,5-dimethyl-2-oxo-4-phenyloxazolidin-3-yl)cyclohexyl)quinoline-8-carboxamide]?
A: IC50 [6, 12]: 55 nM; IC50 ([7]; SW480, 288 h): 1300 nM
